Laboratory results published in patent US12122750B2, “AT2R antagonists and uses thereof” (Eli Lilly and Company, priority 2022, dated 2024).

Target: recombinant human angiotensin-II receptor subtype 2 (hAT2R) (Homo sapiens (Human), UniProt P50052)
Assay: Competitive radioligand binding assay (SPA), hAT2R HEK293 membranes
Conditions: [125I]-Tyr4-Angiotensin-II, read-out: AT2R Ki
Procedure: Compound Solubilization Test and reference compounds were received as dry powder reagents, weighed, and solubilized in 100% DMSO to generate a working stock concentration of 10 mM. Membrane Preparation Protocol (hAT2R HEK293 and rAT2R HEK293) hAT2R membranes were prepared from human embryonic kidney (HEK293) cells which were stably transfected with recombinant human angiotensin-II receptor subtype 2 (hAT2R). Cells from the stable cell lines were expanded in tissue culture flasks to generate a large population of cells; cell pellet (>1 gm), and these cell pellets were stored frozen prior to initiating this membrane isolation procedure for each receptor isoform. Frozen cell pellets were thawed in ice-cold homogenization/resuspension buffer (50 mM Tris-HCl, pH 7.5) containing one Complete© protease inhibitor tablet with EDTA (Roche Diagnostics) per 50 mL buffer, and cell pellet was resuspended at a ratio of 10 mL homogenization buffer to gram of starting cell pellet. Cell suspension was homogenized with an overhead motor-driven Teflon-glass homogenizer using 15 to 20 strokes, followed by centrifugation at 1100×g for 10 minutes at 4° C. The supernatant was saved on ice, pellets were homogenized as before, and centrifuged at 1100×g for 10 minutes at 4° C. Both supernatants were combined and subsequently centrifuged at 35,000×g for 60 minutes at 4° C. The final centrifugation pellet (pellet 2) containing the isolated membranes was resuspended in buffer (4 to 5 mL/g of starting cell paste) containing protease inhibitors and quick frozen in liquid nitrogen prior to storage at -80° C. Protein concentration was determined using a BCA kit (ThermoScientific, Inc.) with bovine serum albumin (BSA) as standard. […] The assays were performed with a scintillation proximity assay (SPA) method using polyvinyltoluene (PVT) wheat germ agglutinin-coupled SPA beads (Perkin Elmer Cat. #RPNQ0001). Assay buffer containing BSA (50 mM Tris-HCl, pH 7.5, 150 mM NaCl, 0.1% w/v fatty-acid free BSA) was used for preparing radioligand, membrane and SPA bead reagent dilution to working stock concentrations. Reference control and test compounds were diluted to obtain ten-point concentration response curves using a four-fold serial dilution protocol onto assay plates, dispensed acoustically from DMSO stock using automated ECHO instrument technology (Labcyte, Inc.). Concentration response curves were routinely generated with the highest final assay concentration for the reference angiotensin-II control at 50 nM, and the highest final assay concentration for the test compounds at 50 μM. […] The hAT2R membrane was combined with PVT-WGA SPA beads to obtain a final assay concentration of 0.25 μg/well hAT2R membrane+0.1 mg/well PVT-WGA SPA bead. And the hAT1R membrane PVT-WGA SPA bead final concentrations was 0.5 μg/well hAT1R membrane+0.1 mg/well PVT-WGA SPA bead. […] For all assays, radioligand addition was followed by the addition of membrane-SPA bead mixture, i.e., the hAT2R membrane-SPA bead mixture (30 μL), the rAT2R membrane-SPA bead mixture, or the AT1R membrane-SPA bead mixture (30 μL) into the assay plate. All dispensing steps were added using a Multiflo FX (Biotek, Inc.) bulk dispensing instrument. After reagent addition steps, assay plates were sealed, and plate contents mixed for one minute on a benchtop micro-plate shaker. Following a 10-hour incubation at room temperature to allow for bead settling and radioligand binding, bound radioactivity was quantitated using a Microbeta Trilux scintillation counter (Perkin Elmer) and expressed as counts per minute (CPM). The unlabeled angiotensin-II control was included on each plate as an experimental assay reference. […] Data Analysis Procedures Compounds were tested in a 10-point concentration response curve (CRC) format, with each plate containing the positive control angiotensin-II positive reference compound, and experimental compounds.

recombinant human angiotensin-II receptor subtype 2 (hAT2R), sequence (P50052 whole entry): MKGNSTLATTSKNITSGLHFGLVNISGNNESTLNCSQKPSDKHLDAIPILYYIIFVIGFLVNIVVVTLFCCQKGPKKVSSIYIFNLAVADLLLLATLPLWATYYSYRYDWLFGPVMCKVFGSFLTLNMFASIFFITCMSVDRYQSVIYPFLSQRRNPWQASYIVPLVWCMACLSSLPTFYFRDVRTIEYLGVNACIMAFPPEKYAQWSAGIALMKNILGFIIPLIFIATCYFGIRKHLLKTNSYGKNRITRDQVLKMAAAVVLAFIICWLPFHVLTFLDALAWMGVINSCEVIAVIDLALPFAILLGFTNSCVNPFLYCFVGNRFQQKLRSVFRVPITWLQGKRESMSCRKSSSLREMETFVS

Work on `CN(C(=O)N1CCC(CC(=O)N(c2ccccc2)C2CCCOC2)(C(=O)O)CC1)c1ccc(C2CC2)cc1` (single isomer, unassigned) [Example 45A, 1-[(4-cyclopropylphenyl)-methyl-carbamoyl]-4-[2-oxo-2-(N-tetrahydropyran-3-ylanilino)ethyl]piperidine-4-carboxylic acid] yielded a Ki of 1.55 nM.

For `CC(C)C(C)N(C(=O)CC1(C(=O)O)CCN(C(=O)N(C)c2ccc(F)cc2)CC1)c1ccccc1` (racemic) [Example 34, 4-[2-(N-[(1)-1,2-dimethylpropyl]anilino)-2-oxo-ethyl]-1-[(4-fluorophenyl)-methyl-carbamoyl]piperidine-4-carboxylic acid], the Ki was 4.32 nM.

With `CN(C(=O)N1CCC(CC(=O)N(c2ccccc2)C2(C3CC3)CC2)(C(=O)O)CC1)c1ccc(F)cc1` [compound 20, 4-[2-(N-(1-cyclopropylcyclopropyl)anilino)-2-oxo-ethyl]-1-[(4-fluorophenyl)-methyl-carbamoyl]piperidine-4-carboxylic acid] the Ki was 2.11 nM.

`O=C(N1CCC(CC(=O)N(c2ccccc2)C2CCCC(F)(F)C2)(C(=O)O)CC1)N1CCc2ccc(F)cc21` (single isomer, unassigned) [Example 72A, 4-[2-(N-(3,3-difluorocyclohexyl)anilino)-2-oxo-ethyl]-1-(6-fluoroindoline-1-carbonyl)piperidine-4-carboxylic acid] gave a Ki of 8.14 nM.

`N#Cc1ccc2c(c1)N(C(=O)N1CCC(CC(=O)N(c3ccccc3)C3CCCCC3)(C(=O)O)CC1)CC2` [Example 33, 1-(6-cyanoindoline-1-carbonyl)-4-[2-(N-cyclohexylanilino)-2-oxo-ethyl]piperidine-4-carboxylic acid] was tested, and the Ki was 1.94 nM.

Compound `O=C(N1CCC(CC(=O)N(c2ccccc2)C2CCCCC2)(C(=O)O)CC1)N1CCc2ccccc21` [Example 6, 4-[2-(N-cyclohexylanilino)-2-oxo-ethyl]-1-(indoline-1-carbonyl)piperidine-4-carboxylic acid] has a Ki of 9.08 nM.

Compound `O=C(CC1(C(=O)O)CCN(C(=O)N(c2ccc(F)cc2)C2CC2)CC1)N(c1ccccc1)c1ccccc1` [Example 39, 1-[cyclopropyl-(4-fluorophenyl)carbamoyl]-4-[2-oxo-2-(N-phenylanilino)ethyl]piperidine-4-carboxylic acid] has a Ki of 2.82 nM.

For `Cc1cccc(N(C(=O)CC2(C(=O)O)CCN(C(=O)N(C)c3ccc(F)cc3)CC2)c2ccccc2)c1` [compound 23, 1-[(4-fluorophenyl)-methyl-carbamoyl]-4-[2-[N-(m-tolyl)anilino]-2-oxo-ethyl]piperidine-4-carboxylic acid], the Ki was 0.823 nM.

`O=C(N1CCC(CC(=O)N(c2ccccc2)C2CCCC(F)(F)C2)(C(=O)O)CC1)N1CCc2ccc(F)cc21` (single isomer, unassigned) [Example 72B, 4-[2-(N-(3,3-difluorocyclohexyl)anilino)-2-oxo-ethyl]-1-(6-fluoroindoline-1-carbonyl)piperidine-4-carboxylic acid] gave a Ki of 0.383 nM.

With `CN(C(=O)N1CCC(CC(=O)N(c2ccccc2)C2CCCOC2)(C(=O)O)CC1)c1ccc(F)cc1` (racemic) [Example 41, 1-[(4-fluorophenyl)-methyl-carbamoyl]-4-[2-oxo-2-(N-tetrahydropyran-3-ylanilino)ethyl]piperidine-4-carboxylic acid] the Ki was 16.6 nM.

In the case of `O=C(N1CCC(CC(=O)N(c2ccccc2F)c2ccccc2F)(C(=O)O)CC1)N1CCc2ccccc21` [Example 59, 4-[2-(2-fluoro-N-(2-fluorophenyl)anilino)-2-oxo-ethyl]-1-(indoline-1-carbonyl)piperidine-4-carboxylic acid], the Ki is reported as 4.23 nM.

`CN(C(=O)N1CCC(CC(=O)N(c2cccc(F)c2)C2CCCCC2)(C(=O)O)CC1)c1ccc(F)cc1` [compound 27, 4-[2-(N-cyclohexyl-3-fluoro-anilino)-2-oxo-ethyl]-1-[(4-fluorophenyl)-methyl-carbamoyl]piperidine-4-carboxylic acid] gave a Ki of 0.4 nM.

With `O=C(c1ccc(C2CC2)cc1)N1CCC(CC(=O)N(c2ccccc2)C2CCCC(F)(F)C2)(C(=O)O)CC1` (racemic) [Example 70, 1-(4-cyclopropylbenzoyl)-4-[2-(N-(3,3-difluorocyclohexyl)anilino)-2-oxo-ethyl]piperidine-4-carboxylic acid] the Ki was 9.39 nM.

Work on `CN(C(=O)N1CCC(CC(=O)N(c2ccccc2)c2ccccc2F)(C(=O)O)CC1)C(C1CC1)C1CC1` [Example 55, 1-[dicyclopropylmethyl(methyl)carbamoyl]-4-[2-(N-(2-fluorophenyl)anilino)-2-oxo-ethyl]piperidine-4-carboxylic acid] yielded a Ki of 3.11 nM.

With `CCCCCn1c(Br)nnc1N1CCC(CC(=O)N(c2ccccc2)c2ccccc2)(C(=O)O)CC1` [Example 4, 1-(5-bromo-4-pentyl-1,2,4-triazol-3-yl)-4-[2-oxo-2-(N-phenylanilino)ethyl]piperidine-4-carboxylic acid] the Ki was 5.13 nM.

`O=C(Cc1ccccc1F)N1CCC(CC(=O)N(c2ccccc2)C2CCCC(F)(F)C2)(C(=O)O)CC1` (racemic) [Example 65, 4-[2-(N-(3,3-difluorocyclohexyl)anilino)-2-oxo-ethyl]-1-[2-(2-fluorophenyl)acetyl]piperidine-4-carboxylic acid] gave a Ki of 2.55 nM.

Work on `CN(C(=O)N1CCC(CC(=O)N(c2ccccc2F)c2ccccc2F)(C(=O)O)CC1)c1ccccc1` [Example 46, 4-[2-(2-fluoro-N-(2-fluorophenyl)anilino)-2-oxo-ethyl]-1-[methyl(phenyl)carbamoyl]piperidine-4-carboxylic acid] yielded a Ki of 0.409 nM.

In the case of `CC(C)c1ccc(C(=O)N2CCC(CC(=O)N(c3ccccc3)C3CCCC(F)(F)C3)(C(=O)O)CC2)cc1` (racemic) [Example 69, 4-[2-(N-(3,3-difluorocyclohexyl)anilino)-2-oxo-ethyl]-1-(4-isopropylbenzoyl)piperidine-4-carboxylic acid], the Ki is reported as 9.24 nM.

`CN(C(=O)N1CCC(CC(=O)N(c2ccccc2)C2CCCCC2(F)F)(C(=O)O)CC1)c1ccc(F)cc1` (racemic) [Example 10, 4-[2-(N-(2,2-difluorocyclohexyl)anilino)-2-oxo-ethyl]-1-[(4-fluorophenyl)-methyl-carbamoyl]piperidine-4-carboxylic acid] gave a Ki of 1.56 nM.
